According to the supplement of paper PMC10307832:

How the values were obtained:
Assay in all cases: relative viability (nuclei count vs DMSO), 5 days (fraction); higher = more cells survive
Elesclomol = compound: CN(NC(=O)CC(=O)NN(C)C(=S)c1ccccc1)C(=S)c1ccccc1 [Elesclomol]
Outline: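 Vehicle-anchored 1536-well plates of lung cancer cell lines, held overnight at 37 °C, were pinned with five library-drug doses (not always all listed) spaced by √10. No medium change followed over the next 5 days, after which the cells were fixed, permeabilised and Hoechst-stained together and imaged at 4×. Nuclei were counted with MetaXpress, and viability is treated-well nuclei over vehicle-well nuclei, taken as a median across plates. Plates passed with control CV below 25% and at least one doubling.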

Elesclomol + Crizotinib = compound: CN(NC(=O)CC(=O)NN(C)C(=S)c1ccccc1)C(=S)c1ccccc1 [Elesclomol] + C[C@@H](Oc1cc(-c2cnn(C3CCNCC3)c2)cnc1N)c1c(Cl)ccc(F)c1Cl [Crizotinib] (partner 1 µM)
Outline: (§1)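 Values are medians from duplicate plates. Each reflects relative viability, defined as the nuclei count of treated wells over that of vehicle wells. Lung cancer cell lines in 1536-well plates were pin-tool dosed one day after seeding with one drug alone or with a fixed anchor-drug dose plus five library-drug doses (not always all listed) in √10 steps, then fixed, stained and imaged at 4× after 5 days.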

Elesclomol + Linsitinib = compound: CN(NC(=O)CC(=O)NN(C)C(=S)c1ccccc1)C(=S)c1ccccc1 [Elesclomol] + C[C@]1(O)C[C@@H](c2nc(-c3ccc4ccc(-c5ccccc5)nc4c3)c3c(N)nccn32)C1 [Linsitinib] (partner 1 µM)
Outline: as §1

Elesclomol + Phenformin = compound: CN(NC(=O)CC(=O)NN(C)C(=S)c1ccccc1)C(=S)c1ccccc1 [Elesclomol] + N=C(N)NC(=N)NCCc1ccccc1 [Phenformin] (partner 250 µM)
Outline: as §1

Elesclomol + Foretinib = compound: CN(NC(=O)CC(=O)NN(C)C(=S)c1ccccc1)C(=S)c1ccccc1 [Elesclomol] + COc1cc2c(Oc3ccc(NC(=O)C4(C(=O)Nc5ccc(F)cc5)CC4)cc3F)ccnc2cc1OCCCN1CCOCC1 [Foretinib] (partner 0.25 µM)
Outline: as §1

Cell Line	relative viability (Elesclomol; 0.003162 µM)	relative viability (Elesclomol; 0.01 µM)	relative viability (Elesclomol; 0.03162 µM)	relative viability (Elesclomol; 0.1 µM)	relative viability (Elesclomol + Crizotinib; first compound 0.003162 µM)	relative viability (Elesclomol + Crizotinib; first compound 0.01 µM)	relative viability (Elesclomol + Crizotinib; first compound 0.03162 µM)	relative viability (Elesclomol + Crizotinib; first compound 0.1 µM)	relative viability (Elesclomol + Linsitinib; first compound 0.003162 µM)	relative viability (Elesclomol + Linsitinib; first compound 0.01 µM)	relative viability (Elesclomol + Linsitinib; first compound 0.03162 µM)	relative viability (Elesclomol + Linsitinib; first compound 0.1 µM)	relative viability (Elesclomol + Phenformin; first compound 0.003162 µM)	relative viability (Elesclomol + Phenformin; first compound 0.01 µM)	relative viability (Elesclomol + Phenformin; first compound 0.03162 µM)	relative viability (Elesclomol + Phenformin; first compound 0.1 µM)	relative viability (Elesclomol + Foretinib; first compound 0.003162 µM)	relative viability (Elesclomol + Foretinib; first compound 0.01 µM)	relative viability (Elesclomol + Foretinib; first compound 0.03162 µM)	relative viability (Elesclomol + Foretinib; first compound 0.1 µM)
PC-14	0.923	0.261	0.0507	0.039	0.918	0.526	0.203	0.0548	0.98	0.85	0.0931	0.0455	0.404	0.16	0.0586	0.023	1.02	0.827	0.484	0.0715
SK-LU-1	1.07	0.779	0.659	0.287	0.904	0.677	0.362	0.141	1.11	0.835	0.405	0.12	0.643	0.287	0.305	0.161	0.803	0.668	0.459	0.193
NCI-H1437	0.879	0.635	0.504	0.47	0.769	0.457	0.504	0.329	0.883	0.56	0.271	0.186	0.292	0.252	0.246	0.217	1.11	0.79	0.609	0.464
NCI-H1734	0.976	0.794	0.32	0.127	0.66	0.586	0.382	0.0924	0.907	0.745	0.8	0.154	0.369	0.343	0.38	0.191	0.882	0.679	0.221	0.126
LK-2	0.796	0.715	0.507	0.157	0.224	0.213	0.124	0.106	0.428	0.21	0.0808	0.0624	0.438	0.389	0.353	0.141	0.89	0.969	0.719	0.177
HCC-15	0.964	0.828	0.626	0.231	0.753	0.667	0.556	0.259	0.882	0.735	0.61	0.38	0.452	0.438	0.335	0.231	0.946	0.857	0.355	0.171
HCC-366	1.04	1.08	0.924	0.202	0.566	0.616	0.112	0.0109	0.689	0.663	0.622	0.0082	0.611	0.562	0.436	0.0349	0.893	0.945	0.899	0.0283
NCI-H650	1	0.696	0.332	0.249	0.666	0.264	0.254	0.256	1.04	0.308	0.304	0.291	0.468	0.345	0.315	0.361	1.07	0.509	0.329	0.243
NCI-H2347	1.01	0.918	0.858	0.616	0.626	0.503	0.416	0.433	0.967	0.88	0.992	0.629	0.426	0.231	0.294	0.281	1.06	0.701	0.482	0.942
LXF-289	1.03	0.956	0.95	0.772	0.811	0.775	0.767	0.588	0.941	0.863	0.938	0.693	0.516	0.406	0.487	0.467	0.979	0.942	0.894	0.684
BEN	0.937	0.677	0.344	0.307	0.803	0.397	0.304	0.214	0.763	0.403	0.322	0.239	0.264	0.233	0.259	0.246	0.493	0.467	0.296	0.265
NCI-H2023	0.907	0.305	0.204	0.0874	0.44	0.248	0.0779	0.0736	0.697	0.319	0.209	0.0484	0.349	0.217	0.145	0.0642	0.67	0.565	0.0376	0.051
NCI-H661	0.91	0.807	0.374	0.298	0.991	0.619	0.361	0.283	0.55	0.242	0.169	0.145	0.272	0.305	0.25	0.193	0.885	0.54	0.275	0.293
NCI-H1355	1.02	0.685	0.593	0.297	1.02	1.02	0.701	0.203	0.803	0.663	0.486	0.17	0.464	0.409	0.391	0.312	0.951	0.894	0.514	0.207
COR-L 105	0.85	0.472	0.344	0.221	0.787	0.407	0.288	0.207	0.715	0.494	0.371	0.202	0.417	0.315	0.289	0.168	0.985	0.698	0.44	0.176
NCI-H2228	0.923	0.881	0.435	0.078	0.381	0.312	0.143	0.0592	0.694	0.541	0.365	0.0338	0.294	0.188	0.159	0.0554	0.863	0.844	0.252	0.054
NCI-H838	0.959	0.883	0.792	0.454	0.833	0.745	0.691	0.414	1.02	0.907	0.879	0.688	0.536	0.508	0.455	0.152	1.07	0.854	0.66	0.419
EMC-BAC-2	1.05	0.548	0.602	0.557	0.762	0.718	0.698	0.406	0.851	0.807	0.699	0.455	0.552	0.372	0.414	0.266	1.1	0.877	0.784	0.392
LU99A	0.919	0.811	0.986	0.544	0.545		0.648	0.121	0.544		0.615	0.117	0.804	0.561	0.901	0.219	0.883	0.625	0.815	0.234
PC-3 [JPC-3]	1.06	0.892	1.04	0.665	0.972	0.959	1.02	0.743	0.958	0.907	0.984	0.791	0.474	0.474	0.496	0.401	0.996	1.02	1.17	0.559
NCI-H596	0.983	0.842	0.865	0.243	0.92	0.948	0.95	0.184	1.12	1.13	0.978	0.267	0.734	0.693	0.714	0.335	0.918	1.03	0.764	0.158
LCLC-97TM1	0.735	0.844	0.738	0.0887	0.283	0.253	0.319	0.0642	0.175	0.16	0.141	0.116	0.369	0.168	0.422	0.387	0.986	0.952	0.909	0.418
NCI-H1993	0.978	0.871	0.782	0.543	0.812	0.836	0.603	0.577	0.72	0.823	0.683	0.591	0.512	0.538	0.517	0.53	0.772	0.671	0.553	0.533
HARA	0.883	0.879	0.919	0.293	1.06	0.799	0.987	0.368	1.11	0.927	0.872	0.21	0.506	0.413	0.475	0.169	0.875	0.878	0.691	0.238
NCI-H460	1.01	0.825	0.557	0.0845	0.624	0.0306	0.0112	0.0109	0.719	0.123	0.0104	0.01	0.439	0.0498	0.0181	0.0123	0.975	0.848	0.27	0.0259
EKVX	0.912	0.662	0.379	0.203	0.741	0.486	0.376	0.21	0.915	0.6	0.239	0.17	0.219	0.225	0.201	0.172	0.779	0.736	0.398	0.189
NCI-H1755	1.01	0.965	0.997	0.801	0.849	0.827	0.692	0.222	1.01	1.04	0.967	0.223	0.624	0.466	0.605	0.57	0.935	0.887	0.922	0.474
